One assay deals with T1, HsFLOT1 (Homo sapiens, UniProt O75955).
T1 construct: gene FLOT1
T1 sequence (O75955 1-427): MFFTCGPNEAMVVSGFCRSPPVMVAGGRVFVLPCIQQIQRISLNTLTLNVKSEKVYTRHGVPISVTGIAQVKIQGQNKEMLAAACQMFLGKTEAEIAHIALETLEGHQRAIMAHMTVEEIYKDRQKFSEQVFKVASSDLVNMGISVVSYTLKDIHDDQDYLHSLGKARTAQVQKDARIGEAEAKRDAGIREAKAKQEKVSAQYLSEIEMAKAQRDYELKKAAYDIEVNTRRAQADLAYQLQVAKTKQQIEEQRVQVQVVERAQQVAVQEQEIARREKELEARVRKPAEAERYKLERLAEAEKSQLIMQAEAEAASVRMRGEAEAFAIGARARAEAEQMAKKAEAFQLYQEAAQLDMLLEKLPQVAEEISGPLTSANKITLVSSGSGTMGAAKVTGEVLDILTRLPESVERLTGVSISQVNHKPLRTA
Kind of assay: proteomic affinity chromatography with GNF179 beads, competition with free GNF179 (TMT MS/MS), lysate. It is filed as biochemical.

The target of a further assay is T2, HsFLOT2 (Homo sapiens, UniProt Q14254).
T2 construct: gene FLOT2
T2 sequence (Q14254 2-428): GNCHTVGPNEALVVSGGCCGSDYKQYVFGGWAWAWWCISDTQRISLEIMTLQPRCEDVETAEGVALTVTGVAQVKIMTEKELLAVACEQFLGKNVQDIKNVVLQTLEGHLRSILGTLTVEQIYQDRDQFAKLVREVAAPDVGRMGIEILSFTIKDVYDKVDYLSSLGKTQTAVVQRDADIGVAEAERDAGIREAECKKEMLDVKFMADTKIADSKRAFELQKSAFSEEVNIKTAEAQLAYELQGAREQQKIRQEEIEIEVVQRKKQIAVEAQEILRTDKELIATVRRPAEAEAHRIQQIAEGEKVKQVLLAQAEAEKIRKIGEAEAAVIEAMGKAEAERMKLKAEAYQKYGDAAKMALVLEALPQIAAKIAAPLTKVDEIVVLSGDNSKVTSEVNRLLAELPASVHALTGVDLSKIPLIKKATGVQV
Described as above. It is filed as biochemical.

Another assay concerns the target T3, PfSTOML (Plasmodium falciparum, UniProt O77376).
T3 construct: gene PF3D7_0318100
Kind of assay: proteomic affinity chromatography with GNF179 beads, competition with free GNF179 (TMT MS/MS), parasite lysate. It is filed as biochemical.

Assay [1] addresses T4, PkSEY1 (Plasmodium knowlesi SEY1) (Plasmodium knowlesi, UniProt B3LAJ9).
T4 construct: Full-length, His-tagged (recombinant)
Kind of assay: surface plasmon resonance (Biacore […], NTA chip). It is filed as binding. In general terms: SPR reads the build-up and loss of mass on a sensor chip optically.

Assay [2] concerns the target T5, PvSEY1 (Plasmodium vivax SEY1) (Plasmodium vivax, UniProt A5K168).
T5 construct: Full-length PvSEY1-myc-His from E. coli, Ni-NTA eluate
T5 sequence (A5K168 1-889): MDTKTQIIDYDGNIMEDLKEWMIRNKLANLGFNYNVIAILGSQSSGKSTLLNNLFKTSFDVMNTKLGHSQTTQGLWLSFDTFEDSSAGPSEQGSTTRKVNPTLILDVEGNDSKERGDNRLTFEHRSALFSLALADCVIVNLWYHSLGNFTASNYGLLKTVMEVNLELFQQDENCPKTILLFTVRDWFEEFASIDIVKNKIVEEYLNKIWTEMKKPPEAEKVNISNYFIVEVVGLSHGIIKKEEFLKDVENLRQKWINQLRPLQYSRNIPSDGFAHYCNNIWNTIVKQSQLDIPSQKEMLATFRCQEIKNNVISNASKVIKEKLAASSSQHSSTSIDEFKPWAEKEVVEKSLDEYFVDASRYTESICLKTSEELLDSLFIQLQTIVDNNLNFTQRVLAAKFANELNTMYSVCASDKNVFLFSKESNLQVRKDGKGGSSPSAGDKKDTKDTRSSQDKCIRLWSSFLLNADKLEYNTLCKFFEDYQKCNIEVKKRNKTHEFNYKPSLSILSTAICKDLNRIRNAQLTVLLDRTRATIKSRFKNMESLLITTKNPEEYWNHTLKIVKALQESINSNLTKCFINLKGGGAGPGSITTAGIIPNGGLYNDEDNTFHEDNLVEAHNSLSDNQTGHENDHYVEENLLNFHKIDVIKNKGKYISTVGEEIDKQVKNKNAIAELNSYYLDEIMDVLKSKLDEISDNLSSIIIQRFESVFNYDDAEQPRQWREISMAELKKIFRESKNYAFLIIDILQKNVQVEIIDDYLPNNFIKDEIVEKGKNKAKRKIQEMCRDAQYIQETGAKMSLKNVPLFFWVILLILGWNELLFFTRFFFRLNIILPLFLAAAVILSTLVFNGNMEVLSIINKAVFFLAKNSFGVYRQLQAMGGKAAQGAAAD
Kind of assay: GTPase assay (EnzChek free phosphate) at […] GNF179; also destabilized in lysate thermal shift assay. It is filed as biochemical.

T3 sequence (O77376 entry or part of it): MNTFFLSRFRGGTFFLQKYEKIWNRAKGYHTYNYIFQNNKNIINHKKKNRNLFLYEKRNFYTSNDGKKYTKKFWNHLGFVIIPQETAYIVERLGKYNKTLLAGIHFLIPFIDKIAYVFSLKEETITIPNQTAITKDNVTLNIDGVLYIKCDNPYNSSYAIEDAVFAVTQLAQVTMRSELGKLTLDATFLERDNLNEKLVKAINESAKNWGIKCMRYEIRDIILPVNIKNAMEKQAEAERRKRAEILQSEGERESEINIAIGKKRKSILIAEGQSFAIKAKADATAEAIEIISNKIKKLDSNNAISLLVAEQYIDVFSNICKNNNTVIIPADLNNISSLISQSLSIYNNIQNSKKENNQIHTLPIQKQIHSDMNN
T4 sequence (B3LAJ9 whole entry): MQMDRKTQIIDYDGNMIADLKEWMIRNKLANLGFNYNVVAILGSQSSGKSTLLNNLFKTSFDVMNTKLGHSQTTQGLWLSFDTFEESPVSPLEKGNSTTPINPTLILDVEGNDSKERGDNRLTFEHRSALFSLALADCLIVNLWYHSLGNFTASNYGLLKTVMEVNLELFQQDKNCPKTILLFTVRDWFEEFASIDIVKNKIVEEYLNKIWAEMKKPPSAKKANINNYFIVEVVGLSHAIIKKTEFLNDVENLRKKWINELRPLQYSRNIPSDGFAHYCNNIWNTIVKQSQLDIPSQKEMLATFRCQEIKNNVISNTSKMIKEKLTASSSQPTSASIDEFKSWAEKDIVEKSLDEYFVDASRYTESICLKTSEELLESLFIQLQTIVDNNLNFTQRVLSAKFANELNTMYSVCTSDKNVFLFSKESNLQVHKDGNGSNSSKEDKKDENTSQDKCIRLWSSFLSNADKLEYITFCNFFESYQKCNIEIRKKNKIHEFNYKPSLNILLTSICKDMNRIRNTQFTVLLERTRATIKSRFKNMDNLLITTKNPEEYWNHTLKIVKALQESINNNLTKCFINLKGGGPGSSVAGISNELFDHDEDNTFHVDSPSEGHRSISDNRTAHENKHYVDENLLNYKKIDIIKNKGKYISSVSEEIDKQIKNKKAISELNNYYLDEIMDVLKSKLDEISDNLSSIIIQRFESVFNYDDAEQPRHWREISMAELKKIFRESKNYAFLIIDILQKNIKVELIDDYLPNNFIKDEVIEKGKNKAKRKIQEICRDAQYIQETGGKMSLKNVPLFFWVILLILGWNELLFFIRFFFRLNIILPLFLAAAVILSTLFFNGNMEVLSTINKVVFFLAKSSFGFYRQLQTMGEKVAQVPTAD

In the case of `CC1(C)c2nc(-c3ccc(F)cc3)c(Nc3ccc(Cl)cc3)n2CCN1C(=O)CN` [GNF179], the dissociation constant (Kd) (as a rule, the constant that tells how readily two partners part at equilibrium) on HsFLOT1 is 340 nM; at HsFLOT2, 390 nM; on PfSTOML it was 3170 nM; in assay [1], 144000 nM. The “GTPase assay (EnzChek free phosphate) at 125 μM GNF179; also destabilized in lys” value in assay [2] is “These results indicate a reduction of PvSEY1 GTPase activity by GNF179”.

(Values after publication PMC11469372, “Plasmodium SEY1 is a novel druggable target that contributes to imidazolopiperazine mechanism of action” (Research Square, 2024).)
